This passage reports MIC results from US6194434A, “Cycloalkylaminomethylpyrrolidine derivatives” (Daiichi Pharmaceutical Co., Ltd., priority 1996, dated 2001).

For orientation: MIC means the lowest concentration found to suppress growth.

In brackets after ≈: the same amount, converted by molar mass. Like-named read-outs stand apart in the source and are kept apart here.

Holding throughout (assay): Antimicrobial activity (MIC), standard method of the Japan Chemotherapeutic Society
What all share (type): cell-based

The test system of one experiment is E. coli, NIHJ. From the text: (§1) The antimicrobial activity of the compounds obtained in Examples 1 to 3 was examined in accordance with the standard method specified by the Japan Chemotherapeutic Society.
The subject of another experiment is Pr. mirabilis, IFO-3849.
Text: as §1

A further experiment deals with Pr. vulgaris, 08601.
Text: as §1

The test system of the next experiment is Ps. aeruginosa, 32104.
Text: as §1

Another experiment has as its system Ps. aeruginosa, 32121.
Text: as §1

Experiment [1] concerns Ps. maltophilia, IID-1275.
Text: as §1

For a further experiment, the system named is S. aureaus, 870307.
Text: as §1

A further experiment deals with S. aureus, 209P.
Text: as §1

In another experiment the test system is S. epidermidis, 56500.
Text: as §1

A further experiment deals with S. flexneli, 2A 5503.
Text: as §1

The test system of another experiment is Ser. marcescens, 10100.
Text: as §1

The test system of experiment [2] is Str. faecalis, ATCC-19433.
Text: as §1

The test system of a further experiment is Str. pyrogenes, G-36.
Text: as §1

Setting [3] is: Pseudomonas aeruginosa, read-out: MIC.

With `COc1c(N2CC[C@H](CNC3CC3)C2)c(F)c(N)c2c(=O)c(C(=O)O)cn([C@@H]3C[C@@H]3F)c12` [Example 2, 5-Amino-7-[3-(R)-(N-cyclopropylaminomethyl)-1-pyrrolidinyl]-6-fluoro-1-[(1R,2S)-2-fluorocyclopropyl]-1,4-dihydro-8-methoxy-4-oxocquinoline-3-carboxylic Acid], the MIC in the experiment on E. coli, NIHJ was 0.006 µg/mL (≈ 0.0134 µM); in the experiment on Pr. mirabilis, IFO-3849, 0.20 µg/mL (≈ 0.446 µM); against Pr. vulgaris, 08601, 0.10 µg/mL (≈ 0.223 µM); with Ps. aeruginosa, 32104, 0.78 µg/mL (≈ 1.74 µM); in the experiment with Ps. aeruginosa, 32121, 0.78 µg/mL (≈ 1.74 µM); in [1], 0.20 µg/mL (≈ 0.446 µM). Further, the MIC is 0.05 µg/mL (≈ 0.111 µM) against S. aureaus, 870307; at most 0.003 µg/mL against S. aureus, 209P; 0.013 µg/mL (≈ 0.029 µM) against S. epidermidis, 56500; 0.013 µg/mL (≈ 0.029 µM) in the experiment on S. flexneli, 2A 5503 (S. flexneli, 2A 5503); 0.39 µg/mL (≈ 0.87 µM) in the experiment with Ser. marcescens, 10100; 0.10 µg/mL (≈ 0.223 µM) in experiment [2]. Moreover, the MIC in the experiment on Str. pyrogenes, G-36 turned out to be 0.025 µg/mL (≈ 0.0557 µM).
For `Cc1c(N2CC[C@H](CNC3CC3)C2)c(F)cc2c(=O)c(C(=O)O)cn([C@@H]3C[C@@H]3F)c12` [Example 1, 7-[3-(R)-Cyclopropylaminomethyl-1-pyrrolidinyl]-6-fluoro-1-[(1R,2S)-2-fluorocyclopropyl]-1,4-dihydro-8-methyl-4-oxoquinoline-3-carboxylic Acid], the MIC in the experiment on E. coli, NIHJ (Escherichia coli, read-out: MIC) was at most 0.003 µg/mL; with Pr. mirabilis, IFO-3849 (Proteus mirabilis, IFO3849, read-out: MIC) it was 0.025 µg/mL (≈ 0.0599 µM); in the experiment with Pr. vulgaris, 08601 (Proteus vulgaris, read-out: MIC) it was 0.006 µg/mL (≈ 0.0144 µM); in the experiment on Ps. aeruginosa, 32104 (setting [3]), 0.2 µg/mL (≈ 0.479 µM); in the experiment with Ps. aeruginosa, 32121 (setting [3]), 0.1 µg/mL (≈ 0.24 µM); in [1] (Stenotrophomonas maltophilia, IID1275, read-out: MIC) it was 0.05 µg/mL (≈ 0.12 µM). For the same compound, the MIC in the experiment with S. aureaus, 870307 (read-out: MIC) was 0.025 µg/mL (≈ 0.0599 µM); with S. aureus, 209P (Staphylococcus aureus, read-out: MIC), at most 0.003 µg/mL; in the experiment on S. epidermidis, 56500 (Staphylococcus epidermidis, read-out: MIC), 0.013 µg/mL (≈ 0.0311 µM); against S. flexneli, 2A 5503, 0.006 µg/mL (≈ 0.0144 µM); with Ser. marcescens, 10100 (Serratia marcescens, read-out: MIC), 0.1 µg/mL (≈ 0.24 µM); in [2] (Enterococcus faecalis, ATCC19433, read-out: MIC), 0.025 µg/mL (≈ 0.0599 µM). For the same compound, the MIC in the experiment with Str. pyrogenes, G-36 (read-out: MIC) was 0.013 µg/mL (≈ 0.0311 µM).
Regarding `Cc1c(N2CC[C@H](CNC3CC3)C2)c(F)c(N)c2c(=O)c(C(=O)O)cn([C@@H]3C[C@@H]3F)c12.Cl` [Example 3, 5-Amino-7-[(3R)-N-cyclopropylaminomethyl-1-pyrrolidinyl]-6-fluoro-1-[(1R,2S)-2-fluorocyclopropyl]-1,4-dihydro-8-methyl-4-oxoquinoline-3-carboxylic Acid Hydrochloride], the minimal inhibitory concentration (MIC) with E. coli, NIHJ was found to be 0.006 µg/mL; with Pr. mirabilis, IFO-3849, 0.10 µg/mL; against Pr. vulgaris, 08601 it was 0.05 µg/mL; in the experiment on Ps. aeruginosa, 32104 it was 0.39 µg/mL; with Ps. aeruginosa, 32121 it was 0.20 µg/mL; in experiment [1], 0.10 µg/mL. Also, the minimal inhibitory concentration (MIC) in the experiment with S. aureaus, 870307 is 0.025 µg/mL; against S. aureus, 209P, at most 0.003 µg/mL; against S. epidermidis, 56500, 0.006 µg/mL; against S. flexneli, 2A 5503 (S. flexneli, 2A 5503) it was 0.006 µg/mL; against Ser. marcescens, 10100 it was 0.20 µg/mL; in [2], 0.05 µg/mL. For the same compound, the MIC in the experiment with Str. pyrogenes, G-36 came to 0.013 µg/mL.
